SMILES strings stand for the structures.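 Briefly, cells in 96-well plates were exposed to five compound concentrations for 48 h, and endpoints were estimated by linear interpolation. At the GI50, growth is halved.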 The source made the active and inactive calls. Rule as the data show it: active = GI50 up to about 1.1 µM and inactive = higher.

Among the test systems are SN12C; HCT-15; SNB-19; SF-295; TK-10; OVCAR-4; Malme-3M; Hs-578T; SK-MEL-2; RPMI-8226; SR; SK-MEL-5; M14; OVCAR-3; UACC-257; UO-31; MDA-N; CCRF-CEM; RXF 393; NCI-H23.
Common to all, as to assay: DTP human tumour cell line panel, 48 h

Take `C[C@]12CC[C@H](O)CC1=CC[C@@H]1[C@@H]2CC[C@]2(C)c3nc(Cl)ccc3C[C@@H]12`: the GI50 in the test with SN12C was 44.8 µM (inactive); with HCT-15, 9.46 µM; with SNB-19, 36.1 µM (inactive); in the test on SF-295 it was 28.2 µM (inactive); with TK-10, > 56.8 µM (inactive); in the test on OVCAR-4, > 53.7 µM (inactive). The GI50 in the test with Malme-3M was 53 µM (inactive); in the test with Hs-578T it was 35.2 µM (inactive); with SK-MEL-2, > 100 µM (inactive); in the test with RPMI-8226, 39.4 µM (inactive); in the test on SR it was 11.4 µM (inactive); in the test with SK-MEL-5 it was > 46.2 µM (inactive). Also, the GI50 in the test on M14 is > 59.4 µM (inactive); with OVCAR-3 it was 27.3 µM (inactive); in the test with UACC-257, > 100 µM (inactive); in the test with UO-31, 7.52 µM (inactive); in the test with MDA-N, 12.2 µM (inactive); in the test on CCRF-CEM, 8.17 µM (inactive). The GI50 with RXF 393 is 37.9 µM (inactive); with NCI-H23 it was 24.6 µM (inactive).

As for `COC(=O)c1sc2c(c1C(=O)OC)/C(=N/C(C)(C)C)S/C2=N\C(C)(C)C`, the GI50 with SN12C was 16.6 µM (inactive); in the test with HCT-15 it was 17.2 µM; in the test on SNB-19, 17.8 µM (inactive); in the test on SF-295 it was 19.2 µM (inactive); in the test on TK-10, 17.2 µM (inactive); in the test on OVCAR-4, 17.7 µM (inactive). Also, the GI50 is 20.7 µM (inactive) in the test with Malme-3M; 25.7 µM (inactive) in the test with Hs-578T; 17.1 µM (inactive) with SK-MEL-2; 15.2 µM (inactive) in the test on RPMI-8226; 13.4 µM (inactive) in the test with SR; 14.8 µM (inactive) with SK-MEL-5. Further, the GI50 in the test on M14 was 16.7 µM (inactive); in the test with OVCAR-3, 20.3 µM (inactive); with UACC-257, 17.9 µM (inactive); in the test on UO-31 it was 0.14 µM (active); in the test with MDA-N it was 17.9 µM (inactive); with CCRF-CEM it was 15.6 µM (inactive). In addition, the values for the GI50 with RXF 393 and with NCI-H23 were 4.02 µM (inactive) and 18.8 µM (inactive), respectively.

Consider `CN(C)CCNC(=O)c1ccc(NCCCN(C)CCCNc2ccc(C(=O)NCCN(C)C)c3nc4ccc([N+](=O)[O-])cc4c(O)c23)c2c(O)c3cc([N+](=O)[O-])ccc3nc12`, for which the concentration for 50% growth inhibition (GI50) in the test with SN12C was < 0.01 µM (active); with HCT-15, 0.368 µM; in the test with SNB-19 it was < 0.0146 µM (active); with SF-295, 0.0495 µM (active); in the test with TK-10, 0.124 µM (active); in the test on OVCAR-4, 0.127 µM (active). For the same compound, the GI50 with Malme-3M is 0.126 µM (active); in the test with Hs-578T it was 0.0798 µM (active); in the test on SK-MEL-2 it was 0.0111 µM (active); in the test with RPMI-8226 it was < 0.01 µM (active); in the test with SR, 0.0311 µM (active); in the test on SK-MEL-5 it was 0.0346 µM (active). The GI50 in the test with M14 was 0.5 µM (active); in the test on OVCAR-3, 0.186 µM (active); in the test on UACC-257, 0.385 µM (active); in the test with UO-31 it was 0.154 µM (active); in the test with MDA-N it was 0.155 µM (active); in the test on CCRF-CEM, < 0.01 µM (active). In addition, the values for the GI50 in the test with RXF 393 and in the test on NCI-H23 were 0.101 µM (active) and 0.126 µM (active), respectively.

Regarding `Cc1cc(NS(=O)(=O)c2ccc(NC(=O)c3ccc4[nH]c5ccccc5c(=O)c4c3)cc2)no1`, the GI50 in the test with SN12C was > 100 µM (inactive); in the test with HCT-15, more than 100 µM; in the test with SNB-19, > 100 µM (inactive); in the test on SF-295, > 100 µM (inactive); with TK-10, > 100 µM (inactive); in the test on OVCAR-4, > 100 µM (inactive). The GI50 in the test with Malme-3M is 56.9 µM (inactive); in the test with Hs-578T, 49.9 µM (inactive); with SK-MEL-2, 75.3 µM (inactive); with RPMI-8226, > 100 µM (inactive); in the test on SR, > 100 µM (inactive); in the test with SK-MEL-5, > 100 µM (inactive). Also, the GI50 with M14 was > 100 µM (inactive); in the test on OVCAR-3 it was > 100 µM (inactive); with UACC-257 it was > 100 µM (inactive); with UO-31, > 100 µM (inactive); with MDA-N, > 100 µM (inactive); with CCRF-CEM, 40.9 µM (inactive). In addition, the GI50 in the test with RXF 393 is 45.4 µM (inactive); with NCI-H23 it was > 100 µM (inactive).

For `CCCCC1Cc2cc(OC)ccc2-c2n1c1cc(OC)ccc1[n+]2C.CCCCC1Cc2cc(OC)ccc2-c2n1c1ccc(OC)cc1[n+]2C` (stereo not given), the GI50 in the test on SN12C is 0.975 µM (active); in the test with HCT-15, 21.7 µM; in the test on SNB-19, 0.904 µM (active); with SF-295 it was 2.39 µM (inactive); in the test with TK-10 it was 2.18 µM (inactive); in the test on OVCAR-4, 2.31 µM (inactive). In addition, the GI50 is 0.935 µM (active) with Malme-3M; 2.77 µM (inactive) in the test with Hs-578T; 2.46 µM (inactive) in the test on SK-MEL-2; 0.221 µM (active) with RPMI-8226; 2.44 µM (inactive) in the test on SR; 0.764 µM (active) in the test with SK-MEL-5. For the same compound, the GI50 in the test on M14 was 3.76 µM (inactive); in the test with OVCAR-3 it was 1.4 µM (inactive); with UACC-257 it was 1.04 µM (active); in the test on UO-31 it was 15.5 µM (inactive); in the test with MDA-N, 1.47 µM (inactive); with CCRF-CEM, 2.64 µM (inactive). In addition, the GI50 is 14.2 µM (inactive) in the test with RXF 393 and 0.839 µM (active) in the test on NCI-H23.

For `Cc1cc(NS(=O)(=O)c2ccc(NC(NC(=O)C(C(F)(F)F)C(F)(F)F)(C(F)(F)F)C(F)(F)F)cc2)no1`, the GI50 in the test with SN12C was > 100 µM (inactive); with HCT-15, more than 100 µM; with SNB-19 it was > 100 µM (inactive); in the test on SF-295, > 100 µM (inactive); with TK-10 it was > 100 µM (inactive); in the test on OVCAR-4 it was > 100 µM (inactive). The GI50 in the test on Malme-3M, in the test with Hs-578T, in the test on SK-MEL-2, in the test on RPMI-8226, in the test on SR and in the test on SK-MEL-5 was > 100 µM (inactive) each time. In addition, the GI50 in the test on M14 was 58.7 µM (inactive); in the test with OVCAR-3, > 100 µM (inactive); in the test with UACC-257 it was > 100 µM (inactive); with UO-31, > 100 µM (inactive); with MDA-N, > 100 µM (inactive); with CCRF-CEM, > 100 µM (inactive). In addition, the GI50 with RXF 393 and in the test with NCI-H23 was > 100 µM (inactive) throughout.

For `O=C(O)c1cc2ccccc2c2c1C(=O)c1ccccc1-2`, the GI50 was 75 µM (inactive) with SN12C; 92 µM in the test on HCT-15; 57 µM (inactive) with SNB-19; 56 µM (inactive) in the test with SF-295; > 100 µM (inactive) with TK-10; > 100 µM (inactive) in the test with OVCAR-4. Further, the GI50 in the test with Malme-3M was 83.8 µM (inactive); in the test with Hs-578T, > 100 µM (inactive); with SK-MEL-2 it was > 100 µM (inactive); in the test with RPMI-8226 it was 65.8 µM (inactive); with SR, 99.8 µM (inactive); in the test on SK-MEL-5, 79.3 µM (inactive). The GI50 is 46.7 µM (inactive) in the test on M14; 50 µM (inactive) with OVCAR-3; > 100 µM (inactive) with UACC-257; 46 µM (inactive) in the test with UO-31; > 100 µM (inactive) in the test with MDA-N; > 100 µM (inactive) in the test with CCRF-CEM. The GI50 in the test on RXF 393 and in the test with NCI-H23 was > 100 µM (inactive) throughout.

`N#CC(NNC(=O)c1c(Cl)c(Cl)c(Cl)c(Cl)c1-c1nc2cc(C(=O)c3ccccc3)ccc2[nH]1)c1ccccc1` (stereo not given): the GI50 was 6.61 µM (inactive) in the test with SN12C; 4.74 µM in the test with HCT-15; 12.4 µM (inactive) with SNB-19; 3.68 µM (inactive) in the test on SF-295; 21.8 µM (inactive) in the test with TK-10; 7.13 µM (inactive) in the test on OVCAR-4. Also, the GI50 with Malme-3M is 8.57 µM (inactive); in the test on Hs-578T, 6.78 µM (inactive); in the test on SK-MEL-2, 8.91 µM (inactive); with RPMI-8226, 6.85 µM (inactive); with SR, 2.84 µM (inactive); in the test with SK-MEL-5, 3.4 µM (inactive). The GI50 in the test with M14 is 7.46 µM (inactive); in the test on OVCAR-3 it was 4.57 µM (inactive); in the test with UACC-257 it was 9.98 µM (inactive); with UO-31, 14 µM (inactive); in the test with MDA-N, 2.56 µM (inactive); in the test with CCRF-CEM, 4.02 µM (inactive). The GI50 in the test with RXF 393 was 3.18 µM (inactive); in the test on NCI-H23 it was 7.45 µM (inactive).

As to `COc1cc(/C=C/C(=N\NC(=S)NN)c2sc(NNC(C)=O)nc2C)ccc1O`, the GI50 is > 100 µM (inactive) in the test with SN12C; more than 100 µM in the test with HCT-15; > 100 µM (inactive) in the test with SNB-19; > 100 µM (inactive) with SF-295; > 100 µM (inactive) in the test on TK-10; > 100 µM (inactive) in the test on OVCAR-4. The GI50 in the test with Malme-3M, with Hs-578T, in the test with SK-MEL-2, in the test on RPMI-8226, in the test with SR and in the test on SK-MEL-5 was > 100 µM (inactive) each time. The GI50 in the test on M14, in the test on OVCAR-3, with UACC-257, in the test on UO-31, in the test with MDA-N and with CCRF-CEM was > 100 µM (inactive) throughout. For the same compound, the GI50 with RXF 393 and with NCI-H23 was > 100 µM (inactive) each time.

With `NC(=O)c1csc(C2(O)COC(CO)C2O)n1` (stereo not given), the GI50 in the test with SN12C is > 100 µM (inactive); with HCT-15 it was more than 100 µM; in the test on SNB-19, > 100 µM (inactive); with SF-295 it was > 100 µM (inactive); in the test with TK-10 it was > 100 µM (inactive); in the test with OVCAR-4, > 100 µM (inactive). For the same compound, the GI50 in the test with Malme-3M, in the test with Hs-578T, in the test on SK-MEL-2, in the test with RPMI-8226, in the test with SR and with SK-MEL-5 was > 100 µM (inactive) throughout. The GI50 in the test with M14, in the test on OVCAR-3, with UACC-257, in the test on UO-31, in the test on MDA-N and in the test with CCRF-CEM was > 100 µM (inactive) in each case. Moreover, the GI50 in the test with RXF 393 and with NCI-H23 was > 100 µM (inactive) each time.

Values taken from ChEMBL document CHEMBL1201862, “PubChem BioAssay data set” (2004).
